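Method: 48-hour compound exposure of cells in 96-well plates, five concentrations, linear interpolation of endpoints. GI50 = concentration required for 50% inhibition of growth.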 The source made the active and inactive calls. No stated cut-off is given here; in the data, active = GI50 up to about 1.1 µM and inactive = higher.
Assays:
Experiment in all cases: NCI anticancer screen, dose series, 48 h
BT-549 = tested on: BT-549
DU-145 = tested on: DU-145
Hs-578T = tested on: Hs-578T
MDA-MB-231 = tested on: MDA-MB-231
MDA-MB-435 = tested on: MDA-MB-435
MDA-N = tested on: MDA-N
T47D = tested on: T47D
786-0 = tested on: 786-0
RXF 631 = tested on: RXF 631

Measured: GI50

O=c1c(Cc2c(O)oc3cc(O)ccc3c2=O)c(O)oc2cc(O)ccc12
inactive: BT-549 > 100 µM | DU-145 > 100 µM | Hs-578T 94.4 µM | MDA-MB-231 > 100 µM | MDA-MB-435 > 100 µM | MDA-N > 100 µM | T47D > 100 µM

O=C(O[C@@H](/C=C/c1ccccc1)P1(=O)N(Cc2ccccc2)[C@H]2CCCC[C@@H]2N1Cc1ccccc1)c1ccccc1
inactive: 786-0 4.32 µM | BT-549 5.96 µM | DU-145 6.21 µM | Hs-578T 13.6 µM | MDA-MB-231 2.29 µM | MDA-MB-435 3.21 µM | MDA-N 4.22 µM | T47D 2.44 µM

COc1ccc(OC)c(NC(=O)C(=O)C(C(=O)c2ccccc2F)C2OC(=O)c3ccccc32)c1 (stereo unspecified)
inactive: RXF 631 34.7 µM

CCOC(=O)c1csc(NC(=O)CCN(CC)CC)n1
inactive: DU-145 40.2 µM | MDA-MB-231 50.5 µM | MDA-MB-435 38.3 µM | MDA-N 45.5 µM | T47D 54.7 µM
